Source: patent publication US20180185313A1, “COMPOSITION COMPRISING AMINO ACID AND CYCLIC DIPEPTIDE” (SUNTORY HOLDINGS LIMITED, priority 2015, published 2018)

Key:
[1] = target: T1, angiotensin-converting enzyme (Homo sapiens, UniProt P12821); experiment: Angiotensin I-converting enzyme-inhibiting activity by ACE Kit-WST (Dojindo Laboratories), residual activity; type: biochemical; details: for angiotensin-converting enzyme-inhibiting action brought about by the amino acid on addition of the cyclic dipeptide: cyclic dipeptide added in a given amount to the amino acid, summary of Tables 1 to 4
T1 construct: purchased Dojindo Laboratories ACE Kit-WST
T1 sequence (P12821 30-1306, species assumed): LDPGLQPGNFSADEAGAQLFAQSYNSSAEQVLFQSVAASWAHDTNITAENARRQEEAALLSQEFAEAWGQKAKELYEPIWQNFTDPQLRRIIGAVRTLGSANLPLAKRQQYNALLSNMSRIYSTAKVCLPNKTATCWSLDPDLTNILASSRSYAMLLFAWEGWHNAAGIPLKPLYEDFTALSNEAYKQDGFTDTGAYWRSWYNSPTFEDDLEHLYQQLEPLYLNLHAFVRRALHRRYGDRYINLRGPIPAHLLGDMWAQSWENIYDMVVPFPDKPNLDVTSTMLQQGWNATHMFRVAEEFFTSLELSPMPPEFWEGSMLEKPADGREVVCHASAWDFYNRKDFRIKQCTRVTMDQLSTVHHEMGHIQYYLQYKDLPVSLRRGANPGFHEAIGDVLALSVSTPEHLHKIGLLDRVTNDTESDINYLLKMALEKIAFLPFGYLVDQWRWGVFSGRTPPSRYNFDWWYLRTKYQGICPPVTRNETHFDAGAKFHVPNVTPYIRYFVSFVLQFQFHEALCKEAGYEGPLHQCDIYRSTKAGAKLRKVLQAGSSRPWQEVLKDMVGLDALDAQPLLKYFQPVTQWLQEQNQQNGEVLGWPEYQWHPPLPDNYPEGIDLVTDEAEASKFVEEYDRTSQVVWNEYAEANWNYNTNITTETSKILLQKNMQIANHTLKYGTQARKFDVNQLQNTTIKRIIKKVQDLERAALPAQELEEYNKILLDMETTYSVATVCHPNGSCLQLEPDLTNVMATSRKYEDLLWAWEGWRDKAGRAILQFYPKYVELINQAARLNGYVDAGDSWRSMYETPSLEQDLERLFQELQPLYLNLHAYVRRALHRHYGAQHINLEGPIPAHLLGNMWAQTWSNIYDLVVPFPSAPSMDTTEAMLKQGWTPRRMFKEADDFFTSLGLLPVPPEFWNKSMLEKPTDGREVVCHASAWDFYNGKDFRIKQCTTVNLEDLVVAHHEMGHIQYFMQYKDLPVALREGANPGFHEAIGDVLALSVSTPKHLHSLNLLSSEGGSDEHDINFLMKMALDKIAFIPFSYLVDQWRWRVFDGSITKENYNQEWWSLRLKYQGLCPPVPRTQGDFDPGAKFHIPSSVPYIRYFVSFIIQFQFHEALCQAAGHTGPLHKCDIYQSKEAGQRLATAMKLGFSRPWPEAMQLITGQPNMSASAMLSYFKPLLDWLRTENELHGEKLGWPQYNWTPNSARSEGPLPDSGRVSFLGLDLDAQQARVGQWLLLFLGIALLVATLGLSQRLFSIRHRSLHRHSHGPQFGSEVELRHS
Experimental: The enhancing effect of a cyclic dipeptide on the angiotensin-converting enzyme-inhibiting action of an amino acid was evaluated. Specifically, as for the inhibiting effects of amino acids and cyclic dipeptides, angiotensin I-converting enzyme-inhibiting activities were measured by using ACE Kit-WST (Dojindo Laboratories) according to the instruction manual attached to the kit. The amino acids were studied at a concentration of 1000 μM, 3000 μM, or 5000 μM, and the cyclic dipeptides were studied at a concentration of 20 μM, 50 μM, 100 μM, 250 μM, or 500 μM. Their-inhibiting activities were evaluated as the residual activity of angiotensin-converting enzyme calculated according to expression 1 given below. A control supplemented with distilled water instead of the aqueous cyclic dipeptide solution was used. Chemically synthesized samples were used as the cyclic dipeptides.
Residual activity (%)=(Absorbance at 450 nm from the cyclic dipeptide-added group/Absorbance from 450 nm from the control)×100 (Expression 1)

[2] = tested on: spontaneously hypertensive rats; details: oral administration; cited from earlier work
[3] = amino acid alone, no cyclic dipeptide

Compound | remaining activity at 1000 µM [1, 3] [%] | remaining activity at 5000 µM [1, 3] [%] | angiotensin-converting enzyme-inhibiting action brought about by the amino acid on addition of the cyclic dipeptide [1] | also measured
N=C(N)NCCC[C@H](N)C(=O)O [Arginine, arginine] | 84.8 | 60.2 |  | 
cyclo-arginyl-tyrosine [Cyclo(Arg-Tyr)] |  |  | enhanced | 
N[C@@H](Cc1c[nH]cn1)C(=O)O [histidine] |  |  |  | mean arterial pressure [2]: decrease

More lines, main results first:

remaining activity at 1000 µM [1, 3] [%] | remaining activity at 5000 µM [1, 3] [%] | angiotensin-converting enzyme-inhibiting action brought about by the amino acid on addition of the cyclic dipeptide [1] | Compound | also measured
 |  | enhanced | cyclo-isoleucyl-serine [Cyclo(Ile-Ser)] | 
83.2 | 43.3 |  | CC(C)C[C@H](N)C(=O)O [Leucine, leucine] | 
94 |  |  | N[C@@H](Cc1ccc(O)cc1)C(=O)O [Tyrosine, tyrosine] | remaining activity at 3000 µM ([1]; amino acid alone, 3000 μM, no cyclic dipeptide): 90.6%
 |  | enhanced | cyclo-glutamyl-histidine [Cyclo(Glu-His)] | 
86.6 | 69 |  | C[C@@H](O)[C@H](N)C(=O)O [Threonine, threonine] | 
